Test results reported in patent publication US20230114241A1, “METHODS OF TREATING EPILEPSY USING THE SAME” (Trevena, Inc., priority 2019, published 2023).

Key:
[1] = biological target: T1, human sphingosine-1-phosphate receptor 1 (S1P1) (Homo sapiens, UniProt P21453); assay: Inhibition of cAMP production (HTRF cAMP HiRange), S1P1 CHO-K1 cells; assay type: cell-based; details: for Emax: CHO-K1, efficacy normalized to maximum efficacy of fingolimod, read-out: hS1P1 CAMP SPAN; for EC50: inhibition of cAMP production, S1P1, read-out: hS1P1 CAMP pEC50 (converted)
Summary of the method: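 CHO-K1 cells co-expressing human S1P1 (C-terminal ProLink tag) and EA-β-arrestin2, plated overnight; after 30 min compound incubation at 37 °C, intracellular cAMP measured by HTRF TR-FRET following 1 h at room temperature. Values normalized to fingolimod.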
Target sequence in this assay (P21453 whole entry): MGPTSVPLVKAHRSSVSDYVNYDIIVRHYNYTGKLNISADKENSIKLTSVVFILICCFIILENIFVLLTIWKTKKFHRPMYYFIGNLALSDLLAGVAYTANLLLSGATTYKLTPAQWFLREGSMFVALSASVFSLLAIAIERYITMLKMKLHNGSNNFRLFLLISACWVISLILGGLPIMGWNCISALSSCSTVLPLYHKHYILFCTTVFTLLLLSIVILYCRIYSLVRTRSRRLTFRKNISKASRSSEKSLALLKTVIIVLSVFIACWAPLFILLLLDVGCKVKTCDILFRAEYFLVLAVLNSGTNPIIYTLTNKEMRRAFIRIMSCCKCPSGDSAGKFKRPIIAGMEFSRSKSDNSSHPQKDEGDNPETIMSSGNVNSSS

[2] = biological target: T1, human sphingosine-1-phosphate receptor 1 (S1P1); assay: β-Arrestin2 recruitment assay (PathHunter), S1P1 CHO-K1 cells; assay type: cell-based; details: for Emax: CHO-K1, efficacy normalized to maximum efficacy of fingolimod, read-out: hS1P1 B-arrestin2 SPAN; for EC50: β-arrestin2 recruitment, S1P1, read-out: hS1P1 B-arrestin2 pEC50 (converted)
Summary of the method: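 CHO-K1 cells co-expressing EA-β-arrestin2 and ProLink-tagged human S1P1 plated overnight, then stimulated 60 min at 37 °C. Enzyme-fragment complementation (β-galactosidase) detected after 1 h at room temperature by luminescence; values normalized to fingolimod.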
Target sequence in this assay (P21453 whole entry): as above
Target sequence in this assay (P32121 whole entry partner): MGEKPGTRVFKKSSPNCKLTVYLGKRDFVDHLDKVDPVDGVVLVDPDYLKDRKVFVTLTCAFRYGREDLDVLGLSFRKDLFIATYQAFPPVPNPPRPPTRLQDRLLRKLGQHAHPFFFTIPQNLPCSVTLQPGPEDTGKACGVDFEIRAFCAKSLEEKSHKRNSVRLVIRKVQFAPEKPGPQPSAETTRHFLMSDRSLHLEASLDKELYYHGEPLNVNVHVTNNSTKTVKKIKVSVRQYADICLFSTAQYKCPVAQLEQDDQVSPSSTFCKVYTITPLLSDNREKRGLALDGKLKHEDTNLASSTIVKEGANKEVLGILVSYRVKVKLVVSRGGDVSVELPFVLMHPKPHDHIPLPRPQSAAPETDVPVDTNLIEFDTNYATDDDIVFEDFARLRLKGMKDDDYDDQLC

Emax [1] [%] | EC50 [1] [µM] | Emax [2] [%] | EC50 [2] [µM] | Compound
< 75 | < 0.316 | > 75 | < 10 | CC(C)n1nnc2cc(-c3nc(-c4ccccc4Br)no3)cnc21 [Compound 413, 3-(2-bromophenyl)-5-[3-(propan-2-yl)-3H-[1,2,3]triazolo[4,5-b]pyridin-6-yl]-1,2,4-oxadiazole]
< 75 | < 0.316 | > 75 | > 10 | Cc1ccncc1-c1noc(-c2cnc3c(c2)nnn3C(C)C)n1 [Compound 414, 4-methyl-3-{5-[3-(propan-2-yl)-3H-[1,2,3]triazolo[4,5-b]pyridin-6-yl]-1,2,4-oxadiazol-3-yl}pyridine]
< 75 | < 0.316 | > 75 | > 10 | CCC1(CC)CC(=O)c2cc(-c3nc(-c4ccc5c(c4)CCC(=O)N5)no3)ccc2O1 [Compound 415, 6-(5-(2,2-diethyl-4-oxochroman-6-yl)-1,2,4-oxadiazol-3-yl)-3,4-dihydroquinolin-2(1H)-one]
> 75 | < 0.316 | > 75 | < 10 | CCC1(CC)CC(=O)c2cc(-c3nc(-c4ccc5c(c4)CC(=O)N5)no3)ccc2O1 [Compound 416, 5-(5-(2,2-diethyl-4-oxochroman-6-yl)-1,2,4-oxadiazol-3-yl)indolin-2-one]
> 75 | < 0.316 | > 75 | < 10 | COc1ccc2oc(-c3ccc4c(c3)nnn4C(C)C)nc2c1 [Compound 425, 2-(1-isopropyl-1H-benzo[d][1,2,3]triazol-5-yl)-5-methoxy-benzo[d]oxazole]
> 75 | > 0.316 | > 75 | > 10 | CC(C)n1nnc2cc(-c3nc4cccc(Br)c4o3)ccc21 [Compound 429, 7-bromo-2-(1-isopropyl-1H-benzo[d][1,2,3]triazol-5-yl)benzo[d]oxazole]
> 75 | > 0.316 | > 75 | > 10 | CCC1(CC)C/C(=N/O)c2cc(-c3nc(-c4cccnc4)no3)ccc2O1 [Compound 430, N-[(4Z)-2,2-diethyl-6-[3-(pyridin-3-yl)-1,2,4-oxadiazol-5-yl]-3,4-dihydro-2H-1-benzopyran-4-ylidene]hydroxylamine]
> 75 | > 0.316 | > 75 | > 10 | CCC1(CC)C/C(=N\O)c2cc(-c3nc(-c4cccnc4)no3)ccc2O1 [Compound 431, N-[(4E)-2,2-diethyl-6-[3-(pyridin-3-yl)-1,2,4-oxadiazol-5-yl]-3,4-dihydro-2H-1-benzopyran-4-ylidene]hydroxylamine]
> 75 | < 0.316 | > 75 | < 10 | CC(C)Nc1ccc(-c2nc(-c3ccc4c(c3)NC(=O)CC4)no2)cc1C#N [Compound 435, 2-(isopropylamino)-5-(3-(2-oxo-1,2,3,4-tetrahydroquinolin-7-yl)-1,2,4-oxadiazol-5-yl)benzonitrile]
> 75 | < 0.316 | > 75 | < 10 | CC(C)Nc1ccc(-c2nc(-c3ccc4c(c3)CCNC4=O)no2)cc1C#N [Compound 442, 2-(isopropylamino)-5-(3-(1-oxo-1,2,3,4-tetrahydroisoquinolin-6-yl)-1,2,4-oxadiazol-5-yl)benzonitrile]
> 75 | < 0.316 | < 75 | < 10 | CCC1(CC)CC(=O)c2cc(-c3noc(-c4ccc(NC(C)C)c(C#N)c4)n3)ccc2O1 [Compound 443, 5-(3-(2,2-diethyl-4-oxochroman-6-y)-1,2,4-oxadiazol-5-yl)-2-(isopropyl-amino)benzonitrile]
< 75 | > 0.316 | < 75 | < 10 | CCC1(CC)CC(=O)c2cc(-c3noc(-c4ccc(NCC5CC5)c(C#N)c4)n3)ccc2O1 [Compound 444, 2-((cyclopropyl-methyl)amino)-5-(3-(2,2-diethyl-4-oxochroman-6-yl)-1,2,4-oxadiazol-5-yl)benzonitrile]
